Laboratory results taken from patent publication US9676715B2, “Bis-indolic derivatives, a process for preparing the same and their uses as a drug” (UNIVERSITE JOSEPH FOURIER, priority 2011, dated 2017).
Converted amounts (≈) assume the structure as drawn.

What was measured:
[1] = system: S. pyogenes (group A) CIP 104226; assay: MIC, microdilution method (9.1); type: cell-based, Streptococcus pyogenes; conditions: Streptococcus pyogenes, CIP104226, 18 h, read-out: MIC
Summary of the method: (§1)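 CLSI broth microdilution in Mueller Hinton broth, final inoculum 5×10^5 CFU/ml, with two-fold compound dilutions (0.50-128 mg/L final). Incubation at 37° C in ambient air, or 5% CO2 with 10% sheep blood for fastidious species.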

[2] = system: 29 bacterial strains belonging to 17 different species; assay: MIC determination, overall statements on the bacterial panel; type: cell-based; conditions: summary of MIC results
Procedure: The microdilution method recommended by the Clinical and Laboratory Standard Institute [M07-A8, Vol. 29, No. 2] was used. The activity of indolic compounds was tested against 29 bacterial strains belonging to 17 different species and 12 different genera (Staphylococcus, Streptococcus, Enterococcus, Listeria, Bacillus, Haemophilus, Escherichia, Klebsiella, Enterobacter, Serratia, Pseudomonas, and Acinetobacter). Bacterial inocula were prepared in Mueller Hinton broth (MH2, bioMérieux, Marcy L'Etoile, France), supplemented with 10% sheep blood for fastidious species (i.e., Streptococcus pneumoniae and Haemophilus influenzae). They were dispensed in 96 well microtiter plates (5×10^5 CFU/ml of final inoculum). Indolic compounds were added to the wells as to obtain two-fold serial concentrations (0.50-128 mg/L of final concentrations). Plates were incubated at 37° C. in ambient air, or at 37° C. in 5% CO2 enriched atmosphere for fastidious species. […] Drug-free cultures served as growth controls. Cultures receiving gentamicin, ciprofloxacin or cefotaxime served as positive controls.

S. pneumoniae ATCC 6303 = assay: MIC, microdilution method (9.1); type: cell-based, Streptococcus pneumoniae; conditions: Streptococcus pneumoniae, ATCC6303, 10% sheep blood, 5% CO2, 18 h, read-out: MIC
Summary of the method: as §1

[3] = system: S. agalactiae (group B) ATCC 12400; assay: MIC, microdilution method (9.1); type: cell-based, Streptococcus agalactiae; conditions: Streptococcus agalactiae, ATCC12400, 18 h, read-out: MIC
Summary of the method: as §1

[4] = system: S. aureus CIP 65.25 (MRSA); assay: MIC, microdilution method (9.1); type: cell-based, Staphylococcus aureus; conditions: Staphylococcus aureus, read after 18 h, read-out: MIC
Summary of the method: as §1

[5] = system: S. aureus ATCC 106414 (VISA); assay: MIC, microdilution method (9.1); type: cell-based, Staphylococcus aureus; conditions: Staphylococcus aureus, read after 18 h, read-out: MIC
Summary of the method: as §1

S. aureus CIP 103428 = assay: MIC, microdilution method (9.1); type: cell-based, Staphylococcus aureus; conditions: Staphylococcus aureus, CIP103428, read after 18 h, read-out: MIC
Summary of the method: as §1

S. aureus ATCC 25923 = assay: MIC, microdilution method (9.1); type: cell-based, Staphylococcus aureus; conditions: Staphylococcus aureus, ATCC25923, read after 18 h, read-out: MIC
Summary of the method: as §1

S. aureus SA-1199B = assay: MIC, microdilution method (9.1); type: cell-based, Staphylococcus aureus; conditions: Staphylococcus aureus, SA1199B, 18 h
Summary of the method: as §1

[6] = system: S. aureus ATCC 33592 (MRSA); assay: MIC, microdilution method (9.1); type: cell-based, Staphylococcus aureus; conditions: Staphylococcus aureus, read after 18 h, read-out: MIC
Summary of the method: as §1

S. aureus ATCC 29213 = assay: MIC, microdilution method (9.1); type: cell-based, Staphylococcus aureus; conditions: Staphylococcus aureus, ATCC29213, read after 18 h, read-out: MIC
Summary of the method: as §1

S. aureus CIP 65.6 = assay: MIC, microdilution method (9.1); type: cell-based, Staphylococcus aureus; conditions: Staphylococcus aureus, CIP65, read after 18 h, read-out: MIC
Summary of the method: as §1

S. aureus ATCC 6538 = assay: MIC, microdilution method (9.1); type: cell-based, Staphylococcus aureus; conditions: Staphylococcus aureus, ATCC6538, read after 18 h, read-out: MIC
Summary of the method: as §1

S. aureus ATCC 9144 = assay: MIC, microdilution method (9.1); type: cell-based, Staphylococcus aureus; conditions: Staphylococcus aureus, ATCC9144, read after 18 h, read-out: MIC
Summary of the method: as §1

E. faecium CIP 54.32 = assay: MIC, microdilution method (9.1); type: cell-based, Enterococcus faecium; conditions: Enterococcus faecium, CIP54, 18 h, read-out: MIC
Summary of the method: as §1

[7] = system: Serratia marcescens CIP 103551; assay: MIC, microdilution method (9.1); type: cell-based; conditions: CIP103551, 18 h
Summary of the method: as §1

[8] = system: Haemophilus influenzae ATCC 49766; assay: MIC, microdilution method (9.1); type: cell-based; conditions: ATCC49766; Haemophilus influenzae ATCC 49766; 10% sheep blood, 5% CO2; 18 h; read-out: MIC
Summary of the method: as §1

[9] = system: Enterobacter cloacae ATCC13047; assay: MIC, microdilution method (9.1); type: cell-based; conditions: 18 h
Summary of the method: as §1

S. pneumoniae ATCC 49619 = assay: MIC, microdilution method (9.1); type: cell-based; conditions: Streptococcus pneumoniae, ATCC49619, 10% sheep blood, 5% CO2, 18 h
Summary of the method: as §1

[10] = system: Escherichia coli ATCC 25922; assay: MIC, microdilution method (9.1); type: cell-based; conditions: ATCC25922, 18 h
Summary of the method: as §1

[11] = system: Klebsiella pneumoniae API ATCC 35657; assay: MIC, microdilution method (9.1); type: cell-based; conditions: ATCC35657, 18 h, read-out: MIC
Summary of the method: as §1

[12] = system: Bacillus subtilis CIP 5262; assay: MIC, microdilution method (9.1); type: cell-based; conditions: CIP5262, 18 h, read-out: MIC
Summary of the method: as §1

[13] = system: Acinetobacter baumanii ATCC 19606; assay: MIC, microdilution method (9.1); type: cell-based; conditions: Acinetobacter baumannii, ATCC19606, 18 h, read-out: MIC
Summary of the method: as §1

[14] = system: Pseudomonas aeruginosa CIP 5933; assay: MIC, microdilution method (9.1); type: cell-based; conditions: CIP5933, 18 h, read-out: MIC
Summary of the method: as §1

[15] = system: Listeria innocua CIP 80.11; assay: MIC, microdilution method (9.1); type: cell-based; conditions: CIP80, 18 h, read-out: MIC
Summary of the method: as §1

[16] = system: HCT116 (human colon tumor); assay: In vitro cytotoxicity; type: cell-based; conditions: HCT-116, HCT116, from 100 μM to 0.005 μM in DMSO, duplicate
S. epidermidis CIP 81.55 = assay: MIC, microdilution method (9.1); type: cell-based, Staphylococcus epidermidis; conditions: Staphylococcus epidermidis, CIP81, read after 18 h, read-out: MIC
Summary of the method: as §1

[17] = system: S. epidermidis ATCC 12228; assay: MIC, microdilution method (9.1); type: cell-based, Staphylococcus epidermidis; conditions: Staphylococcus epidermidis, ATCC12228, read after 18 h, read-out: MIC
Summary of the method: as §1

[18] = system: S. epidermidis CIP 103627; assay: MIC, microdilution method (9.1); type: cell-based, Staphylococcus epidermidis; conditions: Staphylococcus epidermidis, CIP103627, read after 18 h, read-out: MIC
Summary of the method: as §1

E. faecalis ATCC 29212 = assay: MIC, microdilution method (9.1); type: cell-based, Enterococcus faecalis; conditions: Enterococcus faecalis, ATCC29212, 18 h, read-out: MIC
Summary of the method: as §1

S. mitis CIP 103335 = assay: MIC, microdilution method (9.1); type: cell-based, Streptococcus mitis; conditions: Streptococcus mitis, CIP103335, 18 h, read-out: MIC
Summary of the method: as §1

Compound	MIC [1] [mg/L]	intrinsic antibacterial activity (in words) [2]	MIC (S. pneumoniae ATCC 6303) [mg/L]	MIC [3] [mg/L]	MIC [4] [mg/L]	MIC [5] [mg/L]	MIC (S. aureus CIP 103428) [mg/L]	MIC (S. aureus ATCC 25923) [mg/L]	MIC (S. aureus SA-1199B) [mg/L]	MIC [6] [mg/L]	MIC (S. aureus ATCC 29213) [mg/L]	MIC (S. aureus CIP 65.6) [mg/L]	MIC (S. aureus ATCC 6538) [mg/L]	MIC (S. aureus ATCC 9144) [mg/L]	MIC (E. faecium CIP 54.32) [mg/L]	MIC [7] [mg/L]	MIC [8] [mg/L]	MIC [9] [mg/L]	MIC (S. pneumoniae ATCC 49619) [mg/L]	MIC [10] [mg/L]	also measured
CC(C)(C)OC(=O)NCC(NC(=O)c1ccccc1)c1c[nH]c2ccc(Br)cc12 (centres unmarked) [Compound 8, t-Butyl (2-benzamido-2-(5-bromo-1H-indol-3-yl)ethyl) carbamate]	> 128	lack of intrinsic antibacterial activity	> 128	> 128	> 128	> 128	> 128	> 128	> 128	> 128	> 128	> 128	> 128	> 128	> 128	> 128	> 128	> 128	> 128	> 128	MIC [11]: > 128 mg/L; MIC [12]: > 128 mg/L; MIC [13]: > 128 mg/L; MIC [14]: > 128 mg/L; MIC [15]: > 128 mg/L; IC50 ([16]; first value): 6.14 µM; IC50 ([16]; second value): 7.33 µM; MIC (S. epidermidis CIP 81.55): > 128 mg/L; MIC [17]: > 128 mg/L; MIC [18]: > 128 mg/L; MIC (E. faecalis ATCC 29212): > 128 mg/L; MIC (S. mitis CIP 103335): > 128 mg/L
CC(C)(C)OC(=O)NCC(NC(=O)c1cccnc1)c1c[nH]c2ccc(Br)cc12 (centres unmarked) [Compound 10, tert-Butyl (2-(5-bromo-1H-indol-3-yl)-2-(nicotinamido)ethyl) carbamate]	128 (≈ 279 µM)	lack of intrinsic antibacterial activity	128 (≈ 279 µM)	128 (≈ 279 µM)	> 128	> 128	64 (≈ 139 µM)	> 128	64 (≈ 139 µM)	> 128	128 (≈ 279 µM)	> 128	64 (≈ 139 µM)	> 128	> 128	> 128	> 128	> 128	128 (≈ 279 µM)	> 128	MIC [11]: > 128 mg/L; MIC [12]: 128 mg/L (≈ 279 µM); MIC [13]: > 128 mg/L; MIC [14]: > 128 mg/L; MIC [15]: > 128 mg/L; MIC (S. epidermidis CIP 81.55): > 128 mg/L; MIC [17]: > 128 mg/L; MIC [18]: > 128 mg/L; MIC (E. faecalis ATCC 29212): > 128 mg/L; MIC (S. mitis CIP 103335): > 128 mg/L
